Values after ≈ are worked out from the molar mass of the structure shown.
What was measured:
MRSA MW2 cells = assay: Bacterial membrane permeability assay (SYTOX Green); type: cell-based, S. aureus; conditions: for membrane activity compared with bithionol: in words (FIGS. 5, 13, 14); for SYTOX Green membrane permeabilization: MRSA MW2 exponential-phase cells and/or persisters, in words
Method: Bacterial membrane permeability assay. Exponential-phase or stationary-phase S. aureus MW2 cells prepared as described above under Killing kinetics assay and Persister killing assay, respectively, were washed 3 times with the same volume of PBS. The washed cells were adjusted to OD600=0.4 with PBS. SYTOX Green (Molecular Probes, Waltham, Mass., USA) was added to 10 mL of the diluted bacterial suspension to a final concentration of 5 μM and incubated for 30 min at room temperature in the dark. 50 μl of the bacterial/SYTOX Green suspension was mixed with 50 μl of phosphate buffered saline (PBS) containing twice the desired concentrations of compounds in black, clear-bottom, 96-well plates (Corning no. 3904). Fluorescence was measured at room temperature using a spectrophotometer (SpectraMax M2, Molecular Devices) with excitation and emission wavelengths of 485 nm and 525 nm, respectively. All experiments were conducted in biological triplicate.

MRSA MW2 [1] = assay: Antimicrobial activity (MIC) of bithionol analogs; type: cell-based, S. aureus; conditions: for antimicrobial activity compared with bithionol: in words (FIGS. 5, 13, 14)
Method: (§1) Minimal inhibitory concentration (MIC) assay. The MICs of antibiotics were determined by the standard micro-dilution method recommended by the Clinical and Laboratory Standards Institute. MIC assays were conducted in biological triplicate.

[2] = test system: MRSA strain MW2 persisters; assay: Deep-seated mouse thigh infection model, bacterial load; type: in vivo; conditions: 30 mg/kg each agent, every 12 h for 3 days from 24 h post-infection
Method: Deep-seated mouse thigh infection model. […] Mice were euthanized at 96 h post-infection. […] Thighs were homogenized in PBS, serially diluted with PBS, and spot-plated on TSA plates.

[3] = test system: stationary-phase MRSA MW2 persisters; assay: Persister killing assay; type: cell-based, S. aureus; conditions: for killing / viability of MRSA persisters: in words, 4 h treatment (FIGS. 5, 13, 14, 4B); for response of MRSA persisters to conventional antibiotics: 100× MIC
Method: (§2) Persister killing assay. […] Persister cells of MRSA MW2 or VRSA VRS1 were prepared by growing cultures overnight to stationary phase at 37° C. at 200 rpm and washing three times with PBS. 1 mL of ˜1×10^8 CFU/mL MRSA persisters was added to 1 mL of PBS containing a 2-fold higher concentration of the desired concentration of antibiotics in a 96-well assay block (Corning Costar 3960). For assays with daptomycin, PBS was supplemented with 50 μg/mL CaCl2. The assay block was incubated at 37° C. with shaking at 200 rpm. At various times, 400 μl samples were removed, washed once with PBS, serially diluted and spot-plated on TSA plates. Colonies were counted after overnight incubation at 37° C. to determine the titer of live cells. These experiments were conducted in triplicate.

[4] = test system: VRSA strain VRS1 persisters; assay: Persister killing assay; type: cell-based, S. aureus; conditions: linezolid and daptomycin at 100× MIC; bithionol at indicated concentrations (FIG. 1E)
Method: as §2

18 S. aureus strains = assay: MIC assay, S. aureus strains of the panel; type: cell-based; conditions: Staphylococcus aureus; range over the 18 S. aureus strains of the panel (FIG. 6)
Method: Bacterial strains and growth conditions. S. aureus strains were grown in tryptic soy broth (TSB) (BD, Franklin Lakes, N.J., USA). E. faecium and E. faecalis strains were grown in brain-heart infusion (BHI) broth (BD, Franklin Lakes, N.J., USA), and four Gram-negative species, Klebsiella pneumoniae, Acinetobacter baumannii, Pseudomonas aeruginosa, and Enterobacter aerogenes were grown in Luria Bertani (LB) broth (BD, Franklin Lakes, N.J., USA). All bacteria were grown at 37° C. at 200 r.p.m.
as §1

A. baumannii ATCC 17978 = assay: MIC assay (micro-dilution); type: cell-based; conditions: Acinetobacter baumannii, ATCC17978
Method: as §1
(§3) Antimicrobial activity of each analog was tested against four MRSA strains (MW2, BF1, BF2, and BF3), Pseudomonas aeruginosa (PA14), Klebsiella pneumonia (WGLW2), and Acinetobacter baumannii (ATCC 17978).

P. aeruginosa PA14 = assay: MIC assay (micro-dilution); type: cell-based; conditions: Pseudomonas aeruginosa
Method: as §1, §3

K. pneumoniae WGLW2 = assay: MIC assay (micro-dilution); type: cell-based, Klebsiella pneumonia; conditions: Klebsiella pneumoniae
Method: as §1, §3

MRSA MW2 [5] = assay: MIC assay (micro-dilution); type: cell-based, S. aureus; conditions: Staphylococcus aureus
Method: as §1, §3

MRSA BF2 = assay: MIC assay (micro-dilution); type: cell-based, S. aureus; conditions: Staphylococcus aureus
Method: as §1, §3

MRSA BF3 = assay: MIC assay (micro-dilution); type: cell-based, S. aureus; conditions: Staphylococcus aureus
Method: as §1, §3

MRSA BF1 = assay: MIC assay (micro-dilution); type: cell-based, S. aureus; conditions: Staphylococcus aureus
Method: as §1, §3

S. aureus MW2 = assay: Membrane fluidity assay (Laurdan GP); type: cell-based; conditions: 32 μg/mL (FIG. 4), in words
Method: Membrane fluidity assay. Bacterial membrane fluidity was estimated by slightly modifying previously described methods. An overnight culture of S. aureus MW2 was diluted 1:1,000 in 25 mL TSB. The diluted culture was grown to OD600˜1.5 at 37° C. with shaking at 200 rpm, followed by 10 min incubation with 10 μM Laurdan at room temperature in the dark (Sigma-Aldrich, Cat # 40227). The stained cell culture was washed with PBS 4 times and concentrated 2 times. 100 μL of the 2-fold concentrated culture was mixed with 100 μL of phosphate buffered saline (PBS) containing twice the desired concentrations of compounds in black, clear-bottom, 96-well plates (Corning no. 3904). After 1 h incubation at room temperature in the dark, the Laurdan fluorescence intensities were measured using a spectrophotometer (SpectraMax M2, Molecular Devices) with emission wavelengths of 435 nm and 490 nm upon excitation at 350 nm. The Laurdan GP was calculated using the formula GP=(I435−I490)/(I435+I490). All experiments were conducted in biological triplicate.

Molecule | membrane activity compared with bithionol (MRSA MW2 cells) | antimicrobial activity compared with bithionol (MRSA MW2 [1]) | melting point [°C] | SYTOX Green membrane permeabilization (MRSA MW2 cells) | killing / viability of MRSA persisters [3] | also measured
Oc1c(F)cc(F)cc1Sc1cc(F)cc(F)c1O [BT-opF, 6,6′-thio-bis-(2,4-difluorophenol)] | slightly reduced | slightly reduced | 127 to 130 | – | – | –
gentamicin | – | – | – | – | – | effect on MRSA CFUs in the mouse thigh [2]: did not significantly reduce
Oc1c(F)cc(Cl)cc1Sc1cc(Cl)cc(F)c1O [BT-oF, 6,6′-thio-bis-(4-chloro-2-fluorophenol)] | slightly reduced | slightly reduced | 159 to 161 | permeabilize MRSA persister cell membranes | do not kill them | –
CC(=O)NC[C@H]1CN(c2ccc(N3CCOCC3)c(F)c2)C(=O)O1 [linezolid] | – | – | – | – | – | response of MRSA persisters to conventional antibiotics [3]: high level of tolerance; activity against VRSA VRS1 persisters [4]: no
Oc1c(Br)cc(Cl)cc1Sc1cc(Cl)cc(Br)c1O [BT-oBr, 6,6′-thio-bis-(2-bromo-4-chlorophenol)] | similar | similar | 178 to 180 | – | – | –
CCCCCCCCCC(=O)N[C@@H](Cc1c[nH]c2ccccc12)C(=O)N[C@H](CC(N)=O)C(=O)N[C@@H](CC(=O)O)C(=O)N[C@@H]1C(=O)NCC(=O)N[C@@H](CCCN)C(=O)N[C@@H](CC(=O)O)C(=O)N[C@H](C)C(=O)N[C@@H](CC(=O)O)C(=O)NCC(=O)N[C@H](CO)C(=O)N[C@@H]([C@H](C)CC(=O)O)C(=O)N[C@@H](CC(=O)c2ccccc2N)C(=O)O[C@@H]1C [daptomycin] | – | – | – | does not induce rapid SYTOX Green membrane permeabilization | does not kill MRSA persisters | MIC (18 S. aureus strains): 0.5 to 8 µg/mL (≈ 0.309 to 4.94 µM); response of MRSA persisters to conventional antibiotics [3]: high level of tolerance; activity against VRSA VRS1 persisters [4]: nominal activity
NCCOc1c(Cl)cc(Cl)cc1Sc1cc(Cl)cc(Cl)c1OCCN [Compound 1] | – | – | – | – | – | MIC (A. baumannii ATCC 17978): 64 µg/mL (≈ 145 µM); MIC (P. aeruginosa PA14): > 64 µg/mL; MIC (K. pneumoniae WGLW2): 64 µg/mL (≈ 145 µM); MIC (MRSA MW2 [5]): 64 µg/mL (≈ 145 µM); MIC (MRSA BF2): 64 µg/mL (≈ 145 µM); MIC (MRSA BF3): 32 µg/mL (≈ 72.4 µM); MIC (MRSA BF1): 64 µg/mL (≈ 145 µM)
Oc1c(Br)cc(Br)cc1Sc1cc(Br)cc(Br)c1O [BT-opBr, 6, 6′-thio-bis-(2,4-dibromophenol)] | similar | similar | 164 to 166 | – | – | –
COc1c(Cl)cc(Cl)cc1Sc1cc(Cl)cc(Cl)c1OC [BT-OMe, bis-(3,5-Dichloro-2-methoxyphenyl)-sulfane] | complete nullification | complete nullification | – | – | – | –
Oc1c(Cl)cc(Br)cc1Sc1cc(Br)cc(Cl)c1O [BT-pBr, 6,6′-thio-bis-(4-bromo-2-chlorophenol)] | similar | similar | 200 to 202 | – | – | –
Oc1c(Cl)cc(F)cc1Sc1cc(F)cc(Cl)c1O [BT-pF, 6,6′-thio-bis-(2-chloro-4-fluorophenol)] | slightly reduced | slightly reduced | 140 to 142 | permeabilize MRSA persister cell membranes | do not kill them | –
[O-][S+](c1cc(Cl)cc(Cl)c1O)c1cc(Cl)cc(Cl)c1O [bitin-S] | reduced membrane activity | decreased antimicrobial activity | – | permeabilize MRSA persister cell membranes | do not kill them | change in membrane fluidity (Laurdan GP) (S. aureus MW2): do not cause the change in membrane fluidity; MIC (MRSA MW2 [1]; bithionol analogs (FIGS. 5 and 13), strain not given): 8 µg/mL (≈ 21.5 µM)
CN[C@H](CC(C)C)C(=O)N[C@H]1C(=O)N[C@@H](CC(N)=O)C(=O)N[C@H]2C(=O)N[C@H]3C(=O)N[C@H](C(=O)N[C@H](C(=O)O)c4cc(O)cc(O)c4-c4cc3ccc4O)[C@H](O)c3ccc(c(Cl)c3)Oc3cc2cc(c3O[C@@H]2O[C@H](CO)[C@@H](O)[C@H](O)[C@H]2O[C@H]2C[C@](C)(N)[C@H](O)[C@H](C)O2)Oc2ccc(cc2Cl)[C@H]1O [vancomycin] | – | – | – | – | – | effect on MRSA CFUs in the mouse thigh [2]: did not significantly reduce
